Measured values from US20040033213A1, “Methods of modulating dendritic cells using adjuvants” (Corixa Corporation, priority 2002, published 2004).

Key:
Type in all cases: cell-based
[1] = system: 6-7 day cultured human dendritic cells; assay: ELISA of cytokines (IL-12 p40, IL-12 p70, TNF-α) in 22 h induction supernatants of cultured human dendritic cells; conditions: for IL-12 p40 / IL-12 p70 / TNF-α: 22 Hrs
Excerpt: Recent articles have described how human dendritic cells can be derived in vitro from CD14 positive monocyte precursors in peripheral blood. A “buffy coat” preparation can now be commonly obtained from a unit of normal human peripheral blood from a blood bank on request. The leukocyte fraction was harvested from this buffy coat preparation using standard ficoll centrifugation techniques. Subsequently, the leukocyte fraction was labeled with anti-CD 14 antibody coupled to magnetic microbeads. This preparation was then passed over a magnet (Miltanyi Biotech) and CD14 positive monocytes were collected. These CD14 positive monocyte precursors were then cultured for 5-7 days in vitro (5×10^5 cells/ml) with GM-CSF (20 ng/ml) for the duration of the culture. […] After the 24 hour in vitro stimulation culture, cells were washed twice and stained with a panel of monoclonal antibodies specific for different cell surface activation and co-receptor molecules found on mature, activated DCs.
Supernatants from DCs stimulated with LPS, MPL® immunostimulant-S, RC-527, RC-529, and RC-544 were collected and tested by ELISA analysis for cytokines.

[2] = system: cultured human dendritic cells (DC); assay: Flow cytometry of cell surface activation markers on human DCs restimulated 72 hours with AGPs (titration)
Description: Dendritic cells are developed in-vitro from human CD14+ monocyte precursors using standard 7 day GM-CSF ([…]) and IL-4 ([…]) culture conditions. The cultured DCs are >90% CD11c^+/HLA-DR^+/lineage^− by flow cytometry analysis. FIGS. 15-18 show the results of flow cytometry analysis of gated CD11c^+/HLA-DR^+/lineage^− human DCs after they were restimulated in-vitro for 72 hours in the presence of selected AGPs at a titration range of 0.1 μg/ml-2 μg/ml. Data is expressed as the percent of gated DCs which are positive for the indicated marker (y-axis) versus the logo10 of the AGP or lipid A concentration. R595 LPS was used in each induction at 10 ng/ml as a positive control—the negative control was unstimulated human dendritic cells cultured for 72 hours in the same medium conditions used for AGP stimulation. Data was analyzed using non-linear regression analysis—all data was modeled using a 3rd order polynomial to determiine the best curve fit.

[3] = system: cultured human DCs + autologous T cells
[4] = system: Human d7 Cultured Dendritic Cells; assay: Flow cytometry phenotype analysis of human d7 cultured dendritic cells after 24 h stimulation; conditions: LPS 10 ng/ml, others 100 ng/ml; for HLA-DR MFI: 7 day DCs, 24 h stimulation
[5] = Exp. # 092398, Day 7, LPS 10 ng/ml, others 100 ng/ml
[6] = Exp. # 093098, LPS 10 ng/ml, others 100 ng/ml
[7] = single analysis, one normal donor

## CCCCCCCCCCCC(CC(=O)NC(COC1OC(CO)C(OP(=O)(O)O)C(OC(=O)CC(CCCCCCCCCCC)OC(=O)CCCCCCCCC)C1NC(=O)CC(CCCCCCCCCCC)OC(=O)CCCCCCCCC)C(=O)O)OC(=O)CCCCCCCCC (stereo not drawn) [RC-527]
[1]; Exp. # 091698, LPS 10 ng/ml, others 100 ng/ml
  IL-12 p40: 202,200 pg/mL/5 × 10^5 Cells
[1]; Exp. # 092398 (second line, Day7), LPS 10 ng/ml, others 100 ng/ml
  IL-12 p70: 201.4 pg/ml/5 × 10^5 Cells
[1]; [5]
  IL-12 p40: 163,000 pg/mL/5 × 10^5 Cells
  TNF-α: 10,750 pg/mL/5 × 10^5 Cells
[1]; Exp. # 092398 as printed (first line of section), LPS 10 ng/ml, others 100 ng/ml
  IL-12 p70: 194.0 pg/ml/5 × 10^5 Cells
[1]; Exp. # 092398 as printed (third line of section), LPS 10 ng/ml, others 100 ng/ml
  IL-12 p70: 168.9 pg/ml/5 × 10^5 Cells
[1]; Exp. # 093098 (third line of section), LPS 10 ng/ml, others 100 ng/ml
  TNF-α: 7,020 pg/mL/5 × 10^5 Cells
[1]; [6]
  IL-12 p40: 107,600 pg/mL/5 × 10^5 Cells
  TNF-α: 4,000 pg/mL/5 × 10^5 Cells
[1]; all three experiments, LPS 10 ng/ml, others 100 ng/ml
  IL-12 (p40) expression (in words): in every case a potent stimulator of IL-12 (p40)
[1]; the one donor in which LPS and MPL-S gave a significant amount
  IL-12 (p70) (in words): high levels of IL-12 (p70)
[1]; the other two experiments (different normal donors)
  IL-12 (p70) expression (in words): significant levels of IL-12 (p70) expression
[1]; three donors
  TNF-α secretion (in words): very strong TNF-α effect in all three donors
[2]; 72 hours, titration 0.1-2 μg/ml, FIG. 15
  cell surface expression of CD80 (in words): highest level of increased cell surface expression
[2]; 72 hours, titration 0.1-2 μg/ml, FIG. 16
  DC expression of CD83 (in words): highest DC expression levels
[2]; 72 hours, titration 0.1-2 μg/ml, FIG. 17
  cell surface expression of CD40 (in words): highest elevated cell surface expression
[2]; [7]
  concentration at which the effect is usually already maximized: 100 ng/mL
  overall induction of DC maturation and co-stimulatory molecule expression (in words): strongest induction of DC maturation and co-stimulatory molecule expression of all the AGPs tested
[3]
  T cell proliferation / DC activation, CPM 3H-thymidine response (in words): highest levels of DC activation compared to MPL® immunostimulant
[4]; Exp. 091698, 24 h
  CD 1a % positive cells: 93.5%
  CD 1a MFI: 8.71
  CD 4 % positive cells: 69.5%
  CD 4 MFI: 2.33
  CD 14 % positive cells: 4.2%
  CD 35 % positive cells: 49.4%
  CD 35 MFI: 2.74
  CD 40 MFI: 43.0
  CD 44 MFI: 329
  CD 54 MFI: 34.9
  CD 62 L % positive cells: 11.2%
  CD 69 % positive cells: 16.1%
  CD 80 % positive cells: 99.5%
  CD 80 MFI: 8.37
  CD 83 % positive cells: 97.0%
  CD 83 MFI: 3.52
  CD 86 % positive cells: 99.8%
  CD 86 MFI: 18.1
  CD 95 % positive cells: 93.6%
  CD 95 MFI: 1.61
[4]; Exp. 091698
  HLA-DR MFI: 74.2
[4]; Exp. 092398, 24 h
  CD 1a % positive cells: 84.1%
  CD 1a MFI: 5.57
  CD 4 % positive cells: 69.5%
  CD 4 MFI: 2.66
  CD 14 % positive cells: 4.3%
  CD 35 % positive cells: 65.1%
  CD 35 MFI: 3.02
  CD 40 MFI: 35.0
  CD 54 MFI: 42.6
  CD 62 L % positive cells: 13.6%
  CD 69 % positive cells: 10.5%
  CD 80 % positive cells: 99.4%
  CD 80 MFI: 12.7
  CD 83 % positive cells: 97.6%
  CD 83 MFI: 3.57
  CD 86 % positive cells: 99.9%
  CD 86 MFI: 28.0
  CD 95 % positive cells: 94.8%
  CD 95 MFI: 1.78
  αC5aR + GAR Alexa % positive cells: 42.3%
[4]; Exp. 092398, 24 h, values printed with a trailing +
  CD 44 MFI: 499+
[4]; Exp. 092398, 24 h, secondary reagent staining
  GAR-Alexa % positive cells: 2.9%
[4]; Exp. 092398
  HLA-DR MFI: 107.8
[4]; Exp. 093098, 24 h
  CCR 6 % positive cells: 4.0%
  CD 1a % positive cells: 80.3%
  CD 1a MFI: 6.83
  CD 3 % positive cells: 28.5%
  CD 3 MFI: 3.89
  CD 4 % positive cells: 75.2%
  CD 4 MFI: 3.06
  CD 11c % positive cells: 92.6%
  CD 11c MFI: 6.77
  CD 14 % positive cells: 3.3%
  CD 40 MFI: 34.9
  CD 54 MFI: 47.0
  CD 62 L % positive cells: 3.0%
  CD 80 % positive cells: 98.9%
  CD 80 MFI: 13.1
  CD 83 % positive cells: 92.6%
  CD 83 MFI: 3.63
  CD 86 % positive cells: 99.5%
  CD 86 MFI: 27.4
  CD 123 % positive cells: 52.9%
  CD 123 MFI: 1.99
  αC5aR + Alexa 488 % positive cells: 42.7%
  αC5aR + Alexa 488 MFI: 8.17
[4]; Exp. 093098
  HLA-DR MFI: 172.9
